{"source": "patent US20050272737A1", "about": "“Combined treatment with irinotecan and an epidermal growth factor receptor kinase inhibitor” (priority 2004, published 2005)", "key": {"[1]": {"details": "cited from earlier work"}, "[2]": {"test_system": "LoVo colorectal xenograft", "test": "Anti-tumor efficacy in LoVo human colorectal xenograft in nude mice (study 525; also experiment 540)", "format": "in vivo, female athymic nu/nu mice", "method": "(§1) In this study, the drugs were combined at their respective maximum tolerated dose (MTD) and also combined together at sub-optimal doses. All doses included in the combination groups were also included in the study as monotherapy arms. The attempt was to achieve maximum efficacy/regression without increased toxicity.\n(§2) The health of all animals was determined daily by gross observation of experimental animals and by the analyses of blood samples of sentinel animals that were housed on the shared shelf racks. All animals were allowed to acclimate and recover from any shipping related stress for one week prior to experimental manipulation. […] Cages, bedding and water bottles were autoclaved before use and were changed weekly. […] All in vivo experiments were performed in accordance with protocols approved by the Roche Animal Care and Use Committee (RACUC). The Roche animal care facility is fully accredited by the American Association for the Accreditation of Lab Animal Care (AAALAC).\nLoVo cells were grown in F-12K+20% FBS (not heat inactivated) and harvested. 5×10^6 cells/0.2 ml/mouse in PBS (Phosphate Buffered Saline) were implanted subcutaneously in the right flank on Jul.\n(§3) Formulated compound was made up in one batch for the entire 3 week study.\n(§4) An aliquot of the stock vial solutions was taken for each dose group representing the drug needed for that group for the entire study duration and diluted out further with sterile saline, to provide a solution that renders a 0.2 ml dosing volume for each individual animal.\nFor study […], animals were randomized according to tumor volume on day 17 post tumor implantation so that all groups had similar starting mean tumor volumes of 100-150 mm^3.\n[…] Treatment ended on Aug. […] No end of study drug exposure analysis was performed on this study.\n(§5) Tumor measurements and mouse weights were taken two-three times per week for LoVo and HCT116. All animals were individually followed throughout the experiment.\n(§6) Efficacy data was graphically represented as the mean tumor volume+standard error of the mean (SEM).\n(§7) Tumor volume (in cubic millimeters) was calculated using the ellipsoid formula: (D×(d2))/2 • where ‘D’ represents the large diameter of the tumor, and ‘d’ represents the small diameter.\n(§8) In some cases, tumor regression and/or percent change in tumor volume was calculated using the formula: ((T−T0)/T0)×100 • where ‘T’ represents mean tumor volume of the treated group at a particular day and ‘T0’ represents mean tumor volume of the same treated group at initiation of treatment.\n(§9) Statistical analysis was determined by the rank sum test and One Way Anova and a post-hoc Bonferroni t-test (SigmaStat, version 2.0, Jandel Scientific, San Francisco, Calif.)."}, "in vivo": {"test": "in vivo", "method": "The dose of 60 mg/kg was selected as the rational maximum therapeutic dose based on investigator experience with this agent."}, "[3]": {"test_system": "HCT116 colorectal xenograft", "test": "Anti-tumor efficacy in HCT116 human colorectal xenograft in nude mice (study 531)", "format": "in vivo, female athymic nu/nu mice", "details": "for classification of the HCT116 tumor line towards the agent: therapeutic doses: Tarceva 100 mg/kg qd, Iressa 150 mg/kg", "method": "as §1, §2\nHCT-116 cells were grown in McCoy's 5A Modified Medium +10% FBS and harvested. 3×10^6 cells/0.2 ml/mouse in PBS (Phosphate Buffered Saline) were implanted subcutaneously in the right flank on Jul.\nas §3, §4\n(§10) Tarceva™ was administered using a 1 cc syringe and 18-gauge gavage needles (0.2 ml/animal). […] All groups were treated q4d for 3 weeks (total 6 injections). Treatment ended on Aug. […] No end of study of drug exposure analysis was performed on this study.\nas §5, §6, §7, §8, §9"}, "[4]": {"details": "study 531; for toxicity and unscheduled deaths: single agent groups and low dose combination (25/15 mg/kg)", "method": "as §2, §10\nA full necropsy was performed on five mice per treatment from all remaining groups, Whole blood was also collected for hematology and clinical chemistry. Tumors were removed and fixed in zinc formalin and subsequently embedded in paraffin. Immunohistochemistry can be performed on these sections to assess apoptosis via TUNEL and proliferative index via Ki67. Necrosis can also be assessed on H&E stained sections.\nas §5\nWeight loss was graphically represented as percent change in mean group body weight, using the formula: ((W−W0)/W0)×100 • where ‘W’ represents mean body weight of the treated group at a particular day, and ‘W0’ represents mean body weight of the same treated group at initiation of treatment."}, "[5]": {"test": "Toxicity (body weight, deaths, clinical signs, necropsy) in LoVo study 525", "format": "in vivo, female nude mice", "details": "Tarceva 100 mg/kg monotherapy", "method": "Female nude mice (10/group), obtained from Charles River Laboratories (Wilmington, Mass.) at an age of 4-6 weeks, and were used when they were ˜10-12 weeks old and weighed ˜23-25 grams.\nFor efficacy study 525, treatment began on Jul. […] Treatment ended on Aug. 19, 2002 (Day 38 post-tumor implant). No end of study drug exposure analysis was performed on this study.\nAll animals were individually followed throughout the experiment."}, "[6]": {"test_system": "LoVo colorectal xenograft", "test": "Anti-tumor efficacy in LoVo human colorectal xenograft in nude mice (study 525; also experiment 540)", "format": "in vivo, female athymic nu/nu mice", "remark": "listed apart in the source"}, "[7]": {"details": "Tarceva 25 mg/kg qd monotherapy, study 525, day 38"}}, "note": "Read-outs that look alike come from different tables or passages of the source."}
{"compound": "O=c1[nH]cc(F)c(=O)[nH]1", "note": "[5-fluorouracil]", "values": [{"measurement": "response rate", "setting": "[1]; single-agent treatment, advanced colorectal cancer", "value": "about 10%"}]}
{"compound": "CCc1c2c(nc3ccc(OC(=O)N4CCC(N5CCCCC5)CC4)cc13)-c1cc3c(c(=O)n1C2)COC(=O)[C@]3(O)CC", "note": "[CPT-11]", "values": [{"measurement": "Tumor growth inhibition (TGI)", "setting": "[2]; CPT-11 15 mg/kg q4d iv monotherapy, study 525", "value": 93, "unit": "%"}, {"measurement": "tumors partially regressed", "setting": "[2]; CPT-11 60 mg/kg q4d iv monotherapy, study 525", "value": 90, "unit": "%"}, {"measurement": "Tumor growth inhibition (TGI)", "setting": "[2]; CPT-11 60 mg/kg q4d iv monotherapy, study 525, day 38", "value": "> 100", "unit": "%"}, {"measurement": "MTD at 3 weeks", "setting": "in vivo; female, mouse, in vivo, iv", "value": 66, "unit": "mg/kg"}, {"measurement": "Tumor growth inhibition (TGI)", "setting": "[3]; CPT-11 15 mg/kg q4d iv monotherapy, study 531", "value": 73, "unit": "%"}, {"measurement": "tumors partially regressed", "setting": "[3]; CPT-11 60 mg/kg q4d iv monotherapy, study 531", "value": 70, "unit": "%"}, {"measurement": "Tumor growth inhibition (TGI)", "setting": "[3]; CPT-11 60 mg/kg q4d iv monotherapy, study 531, day 35", "value": "> 100", "unit": "%"}, {"measurement": "toxicity and unscheduled deaths", "setting": "[4]", "value": "No toxicity or unscheduled deaths"}]}
{"compound": "COc1cc2ncnc(Nc3ccc(F)c(Cl)c3)c2cc1OCCCN1CCOCC1", "note": "[Iressa™]", "values": [{"measurement": "classification of the HCT116 tumor line towards the agent", "setting": "[3]", "value": "refractory"}, {"measurement": "toxicity and unscheduled deaths", "setting": "[4]", "value": "No toxicity or unscheduled deaths"}]}
{"compound": "C#Cc1cccc(Nc2ncnc3cc(OCCOC)c(OCCOC)cc23)c1", "note": "[Tarceva™, [6,7-bis(2-methoxyethoxy)-4-quinazolin-4-yl]-(3-ethynylphenyl) amine]", "values": [{"measurement": "Tumor growth inhibition (TGI)", "setting": "[2]; Tarceva 100 mg/kg, experiment 540", "value": 98, "unit": "%"}, {"measurement": "tumors partially regressed", "setting": "[2]; Tarceva 100 mg/kg, experiments 525 and 540", "value": "40-60%"}, {"measurement": "mice showing partial regressions (PR)", "setting": "[2]; erlotinib 100 mg/kg, fraction of mice", "value": "6/10"}, {"measurement": "tolerability", "setting": "in vivo; Tarceva 150 mg/kg once a day in CMC/Tween for 3 weeks, previous efficacy studies", "value": "tolerated well"}, {"measurement": "tolerability", "setting": "in vivo; Tarceva 200 mg/kg qd, CMC/Tween, MTD study", "value": "toxicity"}, {"measurement": "MTD at 14 days", "setting": "in vivo; female, mouse, in vivo", "value": 100, "unit": "mg/kg"}, {"measurement": "skin finding", "setting": "[5]", "value": "classic reddening of the skin"}, {"measurement": "single agent tumor efficacy / tumor growth inhibition", "setting": "[3]; Tarceva 25 mg/kg qd monotherapy, study 531, day 35", "value": "not seen"}, {"measurement": "single agent tumor efficacy / tumor growth inhibition", "setting": "[3]; Tarceva 25 mg/kg qd monotherapy, study 531, day 35, listed as erlotinib", "value": "did not render significant tumor growth inhibition"}, {"measurement": "single agent tumor efficacy / tumor growth inhibition", "setting": "[3]; Tarceva 100 mg/kg qd monotherapy, study 531, day 35 post tumor implant", "value": "not seen"}, {"measurement": "single agent tumor efficacy / tumor growth inhibition", "setting": "[3]; Tarceva 100 mg/kg qd monotherapy, study 531, day 35 post tumor implant, listed as erlotinib", "value": "did not render significant tumor growth inhibition"}, {"measurement": "classification of the HCT116 tumor line towards the agent", "setting": "[3]", "value": "refractory"}, {"measurement": "tumor regression", "setting": "[6]; Tarceva 25 mg/kg qd monotherapy, study 525", "value": "no regression"}, {"measurement": "% T/C", "setting": "[6]; [7]", "value": 21, "unit": "%"}, {"measurement": "Tumor growth inhibition (TGI)", "setting": "[6]; [7]", "value": 79, "unit": "%"}, {"measurement": "Tumor growth inhibition", "setting": "[6]; Tarceva 25 mg/kg qd, experiments 525 and 540", "value": "53-79%"}, {"measurement": "tumors with partial regression", "setting": "[6]; Tarceva 100 mg/kg qd oral monotherapy, study 525", "value": 60, "unit": "%"}, {"measurement": "% T/C", "setting": "[6]; Tarceva 100 mg/kg qd oral monotherapy, study 525, day 38", "value": "−2", "unit": "%"}, {"measurement": "Tumor growth inhibition (TGI)", "setting": "[6]; Tarceva 100 mg/kg qd oral monotherapy, study 525, day 38 post tumor implant", "value": "> 100", "unit": "%"}, {"measurement": "skin finding", "setting": "[4]; Tarceva 100 mg/kg monotherapy", "value": "classic reddening of the skin"}, {"measurement": "toxicity and unscheduled deaths", "setting": "[4]", "value": "No toxicity or unscheduled deaths"}]}
{"compound": "O=C(O)C(=O)O.[NH-][C@@H]1CCCC[C@H]1[NH-].[Pt+2]", "note": "[oxaliplatin]", "values": [{"measurement": "response rate", "setting": "[1]; combined with 5-FU and leucovorin, first-line treatment for colorectal cancer", "value": "25-40%"}]}
